Results published in patent US11993576B2, “N-benzyl-N-arylsulfonamide derivative and preparation and use thereof” (Hangzhou Yirui Pharmaceutical Technology Co., Ltd, priority 2019, dated 2024).
“Also recorded” adds a separate entry of the source.

Experiments:
[1] = target: human Kv1.5 (Homo sapiens, UniProt P22460); assay: Conventional patch clamp assay of inhibitory activity against Kv1.5; format: cell-based; details: conventional patch-clamp method; CHO-K1 cells stably expressing human Kv1.5
Experimental: III. Conventional Patch Clamp Assay of Inhibitory Activity Against Kv1.5
The principle and method for the conventional patch clamp method can be found in Grissmer et al. [Grissmer et al. Molecular Pharmacology 1994, 45:1227-1234].
(§1) Inhibitory activity of a compounds against Kv1.5 was assessed using a CHO-K1 recombinant cell line stably expressing human Kv1.5 (Charles River, Calif.). The cells were cultured in an F-12K culture medium containing 5% calf serum (Invitrogen, Carlsbad.ca) in an incubator at 37° C. and under air humidity with 6% CO2.
(§2) During the experiment, adherent cells were placed in a recording chamber under an inverted microscope. All the experiments were performed at room temperature. Each of the cells used itself as the control.
(§3) The test compounds were formulated to their final concentrations on the day of assay, and then dissolved in an extracellular fluid. The extracellular fluid (mM) was: NaCl, 137; KCl, 4; CaCl2, 1.8; MgCl2, 1; HEPES, 10; glucose 10; pH 7.4 (NaOH titration). All the solutions of the test compounds and the control compounds contained 0.3% of DMSO.
(§4) Each of the compounds was perfused by a gravity-driven perfusion system. At least two cells were tested for each of the concentrations of a compound. After the current was stable, the blocking effect of the compounds was calculated by comparing the change in the current before and after administration of the compounds.
1000 μM 4-AP was used as a positive control.
(§5) The cells were transferred to a perfusion chamber, and were perfused with the extracellular fluid. Intracellular fluid (mM): K-aspartate, 130; MgCl2, 5; EGTA 5; HEPES, 10; pH 7.2 (KOH titration). The intracellular fluid was stored in a small amount in a refrigerator at −80° C. in batches, and was thawed on the day of the experiment. The electrodes were drawn by PC-10 (Narishige, Japan). A whole-cell patch-clamp recording was performed, with the noise being filtered by one-fifth of the sampling frequency.
(§6) The cells were clamped at −80 mV and then depolarized to 20 mV with square waves lasting for 2 seconds to obtain a Kv1.5 current. This process was repeated every 20 seconds. The maximum current elicited by the square waves was detected. After the maximum current became stable, the test compounds were perfused. After the reaction was stable, the blocking strength was calculated.
Data was collected and analyzed using pCLAMP 10 (Molecular Devices, Union City, CA). A stable current meant a current which varies within a limited range over time. The value of the stable current was used to calculate the effect of a compound at this […].

[2] = target: T1, human Kv1.3 (Homo sapiens, UniProt P22001); assay: Conventional patch clamp assay of inhibitory activity against Kv1.3; format: cell-based; details: conventional patch-clamp method; CHO-K1 cells stably expressing human Kv1.3
T1 sequence (P22001 whole entry): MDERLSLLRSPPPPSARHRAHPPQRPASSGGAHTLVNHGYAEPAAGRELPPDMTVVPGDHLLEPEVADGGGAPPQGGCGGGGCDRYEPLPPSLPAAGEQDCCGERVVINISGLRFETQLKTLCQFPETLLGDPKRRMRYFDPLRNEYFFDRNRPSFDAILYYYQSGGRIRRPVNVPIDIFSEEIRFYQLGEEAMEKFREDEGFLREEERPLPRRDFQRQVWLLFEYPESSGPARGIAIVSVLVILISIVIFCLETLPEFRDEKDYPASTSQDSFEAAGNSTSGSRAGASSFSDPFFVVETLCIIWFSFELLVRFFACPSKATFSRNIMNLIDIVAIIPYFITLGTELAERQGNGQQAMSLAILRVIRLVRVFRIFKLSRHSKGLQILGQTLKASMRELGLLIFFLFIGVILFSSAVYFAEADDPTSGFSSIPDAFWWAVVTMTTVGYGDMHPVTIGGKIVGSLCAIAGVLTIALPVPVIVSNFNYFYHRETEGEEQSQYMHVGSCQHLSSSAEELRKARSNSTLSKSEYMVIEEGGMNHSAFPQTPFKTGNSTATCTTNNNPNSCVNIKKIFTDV
Excerpt: II. Conventional Patch Clamp Assay of Inhibitory Activity Against Kv1.3
In order to compare the influence of different assay methods on the inhibitory activity of a compound, the conventional patch clamp method was used to assay the inhibitory activities of compounds 21, 37, 44, 61 against Kv1.3. The principle and method for the conventional patch clamp method can be found in Grissmer et al. [Grissmer et al. Molecular Pharmacology 1994, 45:1227-1234].
as §1, with “of the” for “of a”, “against Kv1.3” for “against Kv1.5”, “human Kv1.3” for “human Kv1.5”, “River, California).” for “River, Calif.).”
as §2, §3
as §4, with “compounds. 1000 μM 4-AP was used as a positive control.” for “compounds.”
as §5
as §6, with “to 0” for “to 20”, “a Kv1.3” for “a Kv1.5”
Data was collected and analyzed using pCLAMP 10 (Molecular Devices, Union City, CA). A stable current meant a current which varies within a limited range over time. […]

[3] = target: T1, human Kv1.3; assay: IonWorks automated patch clamp assay of inhibitory activity against Kv1.3; format: cell-based; details: automated patch clamp method; CHO-K1 cells stably expressing human Kv1.3
Experimental: I. IonWorks Automated Patch Clamp Assay of Inhibitory Activity Against Kv1.3
The principle and method for Kv1.3 IonWorks assay can be found in Schroeder et al. [Schroeder et al. J Biomol Screen 2003, 8(1):50-64]
Inhibitory activity of the compounds against Kv1.3 was assessed using a CHO-K1 recombinant cell line stably expressing human Kv1.3 (Charles River, Calif.). The cells were cultured in an F-12K culture medium containing 5% calf serum (Invitrogen, Carlsbad. Calif.) in an incubator at 37° C. and under air humidity with 6% CO2. Prior to be fed in the IonWorks system, the adherent cells were treated with Versene at 37° C. for 6-7 min. After gently beating the culture flask, the cells were re-suspended in a PBS phosphate buffer, and then were centrifuged at 50×g for 4 min. After a short grinding, the cells were eventually re-suspended in an external recording solution at a density of approximately 1×10^6/mL.
The compounds were dissolved in DMSO to formulate a final assay concentration of 300× on the master plate. The final gradient assay concentrations were […], 0.096, 0.048, 0.24, 1.2, 6 and 30 μM. All 300× stock solutions of each compound in DMSO were transferred to a 384-well plate with 2 μl per well. The plates were sealed and stored at −80° C. until the day of assay.
On the day of assay, the plates were each thawed at room temperature. After centrifugation, 198 μl of the external recording solution (with the components of: 130 mM Na-Gluconate, 20 mM NaCl, 4 mM KCl, 1 mM MgCl2, 1.8 mM CaCl2, 5 mM Glucose and 10 mM HEPES, pH7.3) was added and mixed thoroughly. This step provided a 1:100 dilution for the compounds. After addition of cells to IonWorks, a further 1:3 dilution was carried out, resulting in a total dilution of 1:300. At least 8 wells were reserved as blank control on each of the plates, i.e., containing only 0.3% DMSO. In addition, at least 8 wells were reserved as positive control to detect the specificity to cell signals. Fluoxetine, a compound as the positive control, was assayed at its maximum blocking concentration (100 μm) and secondary maximum blocking concentration (10 μm). In addition, an internal recording solution used in the assay (with the components of: 100 mM K-gluconate, 40 mM KCl, 1 mM MgCl2, 1 mM EGTA and 10 mM HEPES, pH7.3) contained Amphotericin B at a final concentration of 200 μg/mL to gain current channels inside the cells. The osmotic pressure of the solution was adjusted with sucrose.
Experimental procedures were carried out following the protocols as set by IonWorks Quattro system (Molecular Devices, San Jose, CA). The current of human Kv1.3 was elicited to 0 millivolt (mV) for four times by a pulse lasting 1 second. A potential of −80 mV was maintained between pulses, for 5 seconds. First, a early voltage application program was started in the IonWorks Quattro system, and then the compounds were added and incubated for 600 seconds. Next, a late voltage application program was started until completion of all assays.
The maximum peak outward currents both before and after addition of the compounds as well as the average tail current elicited when the fourth pulse rose to 0 mV were measured. The inhibitory activity of the compounds against Kv1.3 can be calculated by dividing the measured current amplitude after addition of the compounds by the measured current amplitude before addition of the compounds.
All data was calibrated by a data filtration program of the IonWorks Quattro system. The filtration standard was that: seal quality >30 MΩ, decrease of seal resistance <50% and current amplitude >200 pA.

[4] = system: rat model of psoriasis induced by imiquimod; assay: Rat model of psoriasis induced by imiquimod; format: in vivo; details: Wista female rats; for pathological analysis of skin (HE×100): skin lesions of the back collected on day 11, FIG. 3
Experimental: V. Effects of Compound 24 on a Rat Model of Psoriasis Induced by Imiquimod
SPF Wista female rats with body weight of around 200 g were used.
Dexamethasone (DXMS) sodium phosphate injection, 5 mg/ml/injection (Shiyao Yinhu Pharmaceutical Co., Ltd.); 5% imiquimod cream, 0.25 g/pack (Sichuan MED-SHINE Pharmaceutical Co., Ltd.); 3×10^6 U recombinant human interferon α-2a injection, 1.0 ml/vial (Shenyang Sunshine Pharmaceutical Co., Ltd.); vehicle and negative control: acetone/DMSO 9:1 (Vehicle).
3.1 The animals were randomly divided into 6 groups based on body weight with 10 animals per group: normal control group, model control group, positive control group (dexamethasone sodium phosphate injection 5 mg/mL), 1% Compound 24 group, 0.3% Compound 24 group and 0.1% Compound 24 group.
3.2 Modelling and administration: after adaptive feeding for several days, for each of the rats, hair in central area of the back (2 cm×2 cm) was shaved, and then the surface short hair was shaved with mild depilatory cream, washed and dried. If hair on the back grew out again during the experiment, the hair was removed with a razor. Every morning, for the rats in model control group and administration groups, 5% imiquimod cream was evenly applied on the back at 20 mg/cm^2 (0.25 g/pack, for 3 rats), and after 10 min, recombinant human interferon α-2a injection was injected intraperitoneally at 10,000 U/500 g; for the normal control group, the rats were not treated, once a day, for 10 days. In the afternoon, for the rats in the administration groups, drugs were applied at a corresponding dose (drugs with corresponding concentrations were applied on the back at 100 μL/rat, twice, 50 μL each time) once a day for 10 days.
3.3 Psoriasis Area and Severity Index (PASI) score: according to PASI scoring standard, a score of 0-4 was given for erythema, scale and epidermal thickening of infiltration in the lesional skin of rats. The scoring criteria was as follows: 0, none; 1, mild; 2, moderate; 3, severe; 4, extremely severe. For the rats in each of the groups, the scores were averaged and changes in skin lesions of the rats were observed.
3.4 HE staining: after completion of modeling (on day 11), the tissues with skin lesions on the back of rats were collected, fixed with 4% neutral formaldehyde, embedded in paraffin, and sectioned. After HE staining, changes in skin histomorphology were observed under a microscope, and Baker scoring was performed. […]
3.5 Statistical Methods: all data was expressed as mean±standard deviation (x±s). […]

[5] = system: SCID mouse psoriasis xenograft model; details: injection or topical skin application; cited from earlier work
[6] = system: allergic contact dermatitis; details: applied topically, rat; cited from earlier work

human Kv1.5, sequence (P22460 whole entry): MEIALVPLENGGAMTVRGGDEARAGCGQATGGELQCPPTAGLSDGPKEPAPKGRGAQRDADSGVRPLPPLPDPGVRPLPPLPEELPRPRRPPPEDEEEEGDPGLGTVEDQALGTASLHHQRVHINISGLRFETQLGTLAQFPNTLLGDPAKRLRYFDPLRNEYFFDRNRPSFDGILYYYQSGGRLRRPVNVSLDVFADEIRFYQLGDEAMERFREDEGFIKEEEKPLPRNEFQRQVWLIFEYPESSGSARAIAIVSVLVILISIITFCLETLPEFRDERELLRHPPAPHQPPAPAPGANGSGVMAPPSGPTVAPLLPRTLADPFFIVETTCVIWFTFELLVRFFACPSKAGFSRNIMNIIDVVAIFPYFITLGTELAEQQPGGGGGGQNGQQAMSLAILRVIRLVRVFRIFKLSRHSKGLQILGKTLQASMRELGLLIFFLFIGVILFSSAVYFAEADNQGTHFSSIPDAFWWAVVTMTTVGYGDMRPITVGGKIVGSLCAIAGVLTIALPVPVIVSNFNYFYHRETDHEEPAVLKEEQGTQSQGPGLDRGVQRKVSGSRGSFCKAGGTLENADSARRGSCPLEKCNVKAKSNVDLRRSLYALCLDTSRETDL

Row | SMILES | IC50 [1] [nM] | IC50 [2] [nM] | IC50 [3] [nM] | also measured
1 | CCCS(=O)(=O)N(Cc1ccc(F)cc1)c1ccc(N2CCN(C(=O)N(C)C)CC2)c(C#N)c1 [Compound 21, 4-(2-cyano-4-(N-(4-fluorobenzyl)propyl)phenyl)-N,N-dimethylpiperazin-1-formamide] | 2820 | 141 | 97 | –
2 | O=c1ccc2c(OCCCCOc3ccccc3)c3ccoc3cc2o1 [PAP-1] | – | – | – | reduction of infiltrated CD3+ lymphocytes [5]: 85%; reduction of thickness of pathological epidermal hyperplasia [5]: approximately 50%; allergic contact dermatitis [6]: can effectively inhibit allergic contact dermatitis

Continued, in another order:

Row | IC50 [1] [nM] | IC50 [2] [nM] | IC50 [3] [nM] | SMILES | also measured
3 | – | – | 86 | CCCS(=O)(=O)N(Cc1ccc(Cl)cc1)c1ccc(N2CCN(C(=O)OCC)CC2)c(C#N)c1 [Compound 24] | PASI score ([4]; 1%, 0.3%, 0.1% applied on the back once a day for 10 days, FIG. 2A): had a significant effect on psoriasis in a dose-dependent manner; also recorded: exhibited a significant efficacy on psoriasis in a dose-dependent manner; Baker score ([4]; 1%, 0.3%, 0.1% applied on the back once a day for 10 days, HE staining day 11, FIG. 2B): had a significant effect on psoriasis in a dose-dependent manner; also recorded: exhibited a significant efficacy on psoriasis in a dose-dependent manner; pathological analysis of skin (HE×100) [4]: had a significant effect on psoriasis in a dose-dependent manner; pathological analysis of skin (HE×100) ([4]; listed as compound 24): the skin structure was intact, the granular layer was visible, the skin was partly lengthened and clubbed, no acanthosis was observed, and a small amount infiltration of inflammatory cells was observed in the dermis
4 | 7900 | 111 | 96 | CCCS(=O)(=O)N(Cc1ccc(Cl)cc1)c1ccc(N2CCN(S(=O)(=O)N(C)C)CC2)c(C#N)c1 [Compound 44, 4-(4-(N-(4-chlorobenzyl)propanesulfonamido)-2-cyanophenyl)-N,N-dimethylpiperazin-1-sulfonamide] | –
5 | 2110 | 130 | 92 | CCCS(=O)(=O)N(Cc1ccccc1)c1ccc(N2CCN(C(=O)OCC)CC2=O)c(C#N)c1 [Compound 61, ethyl 4-(4-(N-benzylpropanesulfonamido)2-cyanophenyl)-3-oxopiperazin-1-formate] | –
